Results as given in patent publication US20220281876A1, “DEGRADATION OF BRUTON'S TYROSINE KINASE (BTK) BY CONJUGATION OF BTK INHIBITORS WITH E3 LIGASE LIGAND AND METHODS OF USE” (BEIGENE, LTD., priority 2019, published 2022).

The compounds below were run against T1, BTK (Homo sapiens, UniProt Q06187) (assay: BTK cell degradation in Ramos cells (total BTK ELISA)). Conditions: 16 h incubation, FastScan total BTK ELISA.
T1 construct: endogenous in cells; host or cells: Ramos cells
T1 sequence (Q06187 whole entry): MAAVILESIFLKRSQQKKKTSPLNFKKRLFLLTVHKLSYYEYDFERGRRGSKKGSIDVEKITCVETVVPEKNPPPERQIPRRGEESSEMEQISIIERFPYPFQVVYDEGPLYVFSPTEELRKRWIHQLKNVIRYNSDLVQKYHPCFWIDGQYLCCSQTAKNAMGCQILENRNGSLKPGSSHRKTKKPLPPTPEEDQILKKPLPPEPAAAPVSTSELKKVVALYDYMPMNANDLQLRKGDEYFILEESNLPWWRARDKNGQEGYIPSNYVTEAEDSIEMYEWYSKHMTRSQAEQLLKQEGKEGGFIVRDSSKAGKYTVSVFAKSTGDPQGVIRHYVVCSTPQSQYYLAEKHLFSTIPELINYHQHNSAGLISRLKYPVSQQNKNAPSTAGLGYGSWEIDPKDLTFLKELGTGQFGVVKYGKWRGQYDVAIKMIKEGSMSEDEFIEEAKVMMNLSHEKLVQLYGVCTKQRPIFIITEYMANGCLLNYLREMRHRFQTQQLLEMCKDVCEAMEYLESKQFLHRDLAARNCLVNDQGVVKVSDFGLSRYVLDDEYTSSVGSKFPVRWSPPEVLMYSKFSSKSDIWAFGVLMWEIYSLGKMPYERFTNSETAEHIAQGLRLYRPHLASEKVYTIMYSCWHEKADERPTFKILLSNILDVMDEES
Assay type: cell-based
Procedure: Ramos cells are treated with compounds diluted in 0.1% DMSO, dilution is done according to the following protocol: (1) make 1000x stock solution in DMSO from 10 mM by 5-fold dilution, total 7 doses were included; (2) make 10x solution in cell culture medium by transferring 1 ul 1000x stock solution into 99 ul medium; (3) 11 ul of 10× solution is added to cells and incubate for 16 h.
Cells in 96 well plate are harvested by centrifugation (1200 rpm), and wash once with ice-cold PBS. Then, 100 ul 1×cell extraction buffer is added in each well. The cells are placed on a shaker for 20 min at 4° C.; 5 ul lysate is transferred to 45 ul of 1×cell extraction buffer in ELISA plate, and 50 ul of the antibody cocktail is added in each well; seal the plate and incubate 1 hour at room temperature on a plate shaker; medium is discarded from the plate, tap the plated on a paper towel, wash 3×200 ul ELISA wash buffer; add 100 ul of TMB to each well and incubate the plate in the dark for 15 min at room temperature on a shaker; add 100 ul of STOP solution to each well; read absorbance at 450 nm. The BTK ELISA assay was performed using FastScan total BTK ELISA kit (Cell Signaling Cat #36609).
For `NC(=O)c1c(-c2ccc(Oc3ccccc3)cc2)nn2c1NCC[C@H]2C1CCN(C(=O)c2cn(CCOCCOCCOCCOCCOCCOCCOCCNc3cccc4c3C(=O)N(C3CCC(=O)NC3=O)C4=O)nn2)CC1` (stereo partly drawn) [Example 17, (7S)-7-(1-(1-(23-((2-(2,6-dioxopiperidin-3-yl)-1,3-dioxoisoindolin-4-yl)amino)-3,6,9, 12, 15, 18, 21-heptaoxatricosyl)-1H-1,2,3-triazole-4-carbonyl)piperidin-4-yl)-2-(4-phenoxyphenyl)-4,5,6,7-tetrahydropyrazolo[1,5-a]pyrimidine-3-carboxamide], the DC50 was > 10000 nM. Work on `NC(=O)c1c(-c2ccc(Oc3ccccc3)cc2)nn2c1NCC[C@H]2C1CCN(C(=O)CCCc2cn(CCOCCNc3cccc4c3C(=O)N(C3CCC(=O)NC3=O)C4=O)nn2)CC1` (stereo partly drawn) [Example 18, (7S)-7-(1-(4-(1-(2-(2-((2-(2,6-dioxopiperidin-3-yl)-1,3-dioxoisoindolin-4-yl)amino)ethoxy)ethyl)-1H-1,2,3-triazol-4-yl)butanoyl)piperidin-4-yl)-2-(4-phenoxyphenyl)-4,5,6,7-tetrahydropyrazolo[1,5-a]pyrimidine-3-carboxamide] yielded a DC50 of 236 nM. `NC(=O)c1c(-c2ccc(Oc3ccccc3)cc2)nn2c1NCC[C@H]2C1CCN(C(=O)CCCc2cn(CCCCNC(=O)COc3cccc4c3C(=O)N(C3CCC(=O)NC3=O)C4=O)nn2)CC1` (stereo partly drawn) [Example 19, (7S)-7-(1-(4-(1-(4-(2-((2-(2,6-dioxopiperidin-3-yl)-1,3-dioxoisoindolin-4-yl)oxy)acetamido)butyl)-1H-1,2,3-triazol-4-yl)butanoyl)piperidin-4-yl)-2-(4-phenoxyphenyl)-4,5,6,7-tetrahydropyrazolo[1,5-a]pyrimidine-3-carboxamide] showed a DC50 of 6410 nM. In the case of `NC(=O)c1c(-c2ccc(Oc3ccccc3)cc2)nn2c1NCC[C@H]2C1CCN(C(=O)CCCc2cn(CCOCCOCCNc3cccc4c3C(=O)N(C3CCC(=O)NC3=O)C4=O)nn2)CC1` (stereo partly drawn) [Example 20, (7S)-7-(1-(4-(1-(2-(2-(2-((2-(2,6-dioxopiperidin-3-yl)-1,3-dioxoisoindolin-4-yl)amino)ethoxy)ethoxy)ethyl)-1H-1,2,3-triazol-4-yl)butanoyl)piperidin-4-yl)-2-(4-phenoxyphenyl)-4,5,6,7-tetrahydropyrazolo[1,5-a]pyrimidine-3-carboxamide], the DC50 is reported as > 10000 nM. For `NC(=O)c1c(-c2ccc(Oc3ccccc3)cc2)nn2c1NCC[C@H]2C1CCN(C(=O)CCCc2cn(CCOCCOCCOCCNc3cccc4c3C(=O)N(C3CCC(=O)NC3=O)C4=O)nn2)CC1` (stereo partly drawn) [Example 21, (7S)-7-(1-(4-(1-(2-(2-(2-(2-((2-(2,6-dioxopiperidin-3-yl)-1,3-dioxoisoindolin-4-yl)amino)ethoxy)ethoxy)ethoxy)ethyl)-1H-1,2,3-triazol-4-yl)butanoyl)piperidin-4-yl)-2-(4-phenoxyphenyl)-4,5,6,7-tetrahydropyrazolo[1,5-a]pyrimidine-3-carboxamide], the DC50 was 388 nM. In the case of `NC(=O)c1c(-c2ccc(Oc3ccccc3)cc2)nn2c1NCC[C@H]2C1CCN(CCOCCOCC(=O)Nc2ccc3c(c2)C(=O)N(C2CCC(=O)NC2=O)C3=O)CC1` (stereo partly drawn) [Example 24, (7S)-7-(1-(2-(2-(2-((2-(2,6-dioxopiperidin-3-yl)-1,3-dioxoisoindolin-5-yl)amino)-2-oxoethoxy)ethoxy)ethyl)piperidin-4-yl)-2-(4-phenoxyphenyl)-4,5,6,7-tetrahydropyrazolo[1,5-a]pyrimidine-3-carboxamide], the DC50 is reported as 34 nM. With `NC(=O)c1c(-c2ccc(Oc3ccccc3)cc2)nn2c1NCC[C@H]2C1CCN(C(=O)COCCCCCCCCNC(=O)COc2cccc3c2CN(C2CCC(=O)NC2=O)C3=O)CC1` (stereo partly drawn) [Example 25, (7S)-7-(1-(2-((8-(2-((2-(2,6-dioxopiperidin-3-yl)-1-oxoisoindolin-4-yl)oxy)acetamido)octyl)oxy)acetyl)piperidin-4-yl)-2-(4-phenoxyphenyl)-4,5,6,7-tetrahydropyrazolo[1,5-a] pyrimidine-3-carboxamide] the DC50 was > 10000 nM. With `NC(=O)c1c(-c2ccc(Oc3ccccc3)cc2)nn2c1NCC[C@H]2C1CCN(C(=O)COCCCCCCCCNc2cccc3c2C(=O)N(C2CCC(=O)NC2=O)C3=O)CC1` (stereo partly drawn) [Example 26, (7S)-7-(1-(2-((8-((2-(2,6-dioxopiperidin-3-yl)-1,3-dioxoisoindolin-4-yl)amino)octyl)oxy)acetyl)piperidin-4-yl)-2-(4-phenoxyphenyl)-4,5,6,7-tetrahydropyrazolo[1,5-a]pyrimidine-3-carboxamide] the DC50 was > 10000 nM. For `NC(=O)c1c(-c2ccc(Oc3ccccc3)cc2)nn2c1NCC[C@H]2C1CCN(C(=O)COCCOCCOCCOCCNc2cccc3c2C(=O)N(C2CCC(=O)NC2=O)C3=O)CC1` (stereo partly drawn) [Example 27, (7S)-7-(1-(14-((2-(2,6-dioxopiperidin-3-yl)-1,3-dioxoisoindolin-4-yl)amino)-3,6,9, 12-tetraoxatetradecanoyl)piperidin-4-yl)-2-(4-phenoxyphenyl)-4,5,6,7-tetrahydropyrazolo[1,5-a]pyrimidine-3-carboxamide], the DC50 was > 10000 nM. `NC(=O)c1c(-c2ccc(Oc3ccccc3)cc2)nn2c1NCC[C@H]2C1CCN(C(=O)COCCOCCNC(=O)CCN2CCN(c3ccc4c(c3)C(=O)N(C3CCC(=O)NC3=O)C4=O)CC2)CC1` (stereo partly drawn) [Example 28, (7S)-7-(1-(2-(2-(2-(3-(4-(2-(2,6-dioxopiperidin-3-yl)-1,3-dioxoisoindolin-5-yl)piperazin-1-yl)propanamido)ethoxy)ethoxy)acetyl)piperidin-4-yl)-2-(4-phenoxyphenyl)-4,5,6,7-tetrahydropyrazolo[1,5-a]pyrimidine-3-carboxamide] showed a DC50 of 1480 nM. With `NC(=O)c1c(-c2ccc(Oc3ccccc3)cc2)nn2c1NCC[C@H]2C1CCN(C(=O)COCCOCCOCCOCCNC(=O)COc2cccc3c2CN(C2CCC(=O)NC2=O)C3=O)CC1` (stereo partly drawn) [Example 29, (7S)-7-(1-(1-((2-(2,6-dioxopiperidin-3-yl)-1-oxoisoindolin-4-yl)oxy)-2-oxo-6,9, 12, 15-tetraoxa-3-azaheptadecan-17-oyl)piperidin-4-yl)-2-(4-phenoxyphenyl)-4,5,6,7-tetrahydropyrazolo[1,5-a]pyrimidine-3-carboxamide] the DC50 was 458 nM. In the case of `NC(=O)c1c(-c2ccc(Oc3ccccc3)cc2)nn2c1NCC[C@H]2C1CCN(C(=O)CCCCNc2cccc3c2C(=O)N(C2CCC(=O)NC2=O)C3=O)CC1` (stereo partly drawn) [Example 31, (7S)-7-(1-(5-((2-(2,6-dioxopiperidin-3-yl)-1,3-dioxoisoindolin-4-yl)amino)pentanoyl)piperidin-4-yl)-2-(4-phenoxyphenyl)-4,5,6,7-tetrahydropyrazolo[1,5-a]pyrimidine-3-carboxamide], the DC50 is reported as > 10000 nM. With `NC(=O)c1c(-c2ccc(Oc3ccccc3)cc2)nn2c1NCC[C@H]2C1CCN(C(=O)CCCNc2cccc3c2C(=O)N(C2CCC(=O)NC2=O)C3=O)CC1` (stereo partly drawn) [Example 32, (7S)-7-(1-(4-((2-(2,6-dioxopiperidin-3-yl)-1,3-dioxoisoindolin-4-yl)amino)butanoyl)piperidin-4-yl)-2-(4-phenoxyphenyl)-4,5,6,7-tetrahydropyrazolo[1,5-a]pyrimidine-3-carboxamide] the DC50 was > 10000 nM. `NC(=O)c1c(-c2ccc(Oc3ccccc3)cc2)nn2c1NCC[C@H]2C1CCN(C(=O)CCCNC(=O)COCCOCCOCCOCCNc2cccc3c2C(=O)N(C2CCC(=O)NC2=O)C3=O)CC1` (stereo partly drawn) [Example 34, (7S)-7-(1-(1-((2-(2,6-dioxopiperidin-3-yl)-1,3-dioxoisoindolin-4-yl)amino)-14-oxo-3,6,9, 12-tetraoxa-15-azanonadecan-19-oyl)piperidin-4-yl)-2-(4-phenoxyphenyl)-4,5,6,7-tetrahydropyrazolo[1,5-a]pyrimidine-3-carboxamide] was tested, and the DC50 was 1890 nM. `NC(=O)c1c(-c2ccc(Oc3ccccc3)cc2)nn2c1NCC[C@H]2C1CCN(C(=O)COCCOCCNC(=O)CCCCN2CCN(c3ccc4c(c3)C(=O)N(C3CCC(=O)NC3=O)C4=O)CC2)CC1` (stereo partly drawn) [Example 35, (7S)-7-(1-(2-(2-(2-(5-(4-(2-(2,6-dioxopiperidin-3-yl)-1,3-dioxoisoindolin-5-yl)piperazin-1-yl)pentanamido)ethoxy)ethoxy)acetyl)piperidin-4-yl)-2-(4-phenoxyphenyl)-4,5,6,7-tetrahydropyrazolo[1,5-a]pyrimidine-3-carboxamide] gave a DC50 of 326 nM. For `CN(CCOCCNc1cccc2c1C(=O)N(C1CCC(=O)NC1=O)C2=O)CCC(=O)N1CCC([C@@H]2CCNc3c(C(N)=O)c(-c4ccc(Oc5ccccc5)cc4)nn32)CC1` (stereo partly drawn) [Example 37, (7S)-7-(1-(3-((2-(2-((2-(2,6-dioxopiperidin-3-yl)-1,3-dioxoisoindolin-4-yl)amino)ethoxy)ethyl)(methyl)amino)propanoyl)piperidin-4-yl)-2-(4-phenoxyphenyl)-4,5,6,7-tetrahydropyrazolo[1,5-a]pyrimidine-3-carboxamide], the DC50 was 120 nM. Compound `CN(CCNc1cccc2c1C(=O)N(C1CCC(=O)NC1=O)C2=O)CCC(=O)N1CCC([C@@H]2CCNc3c(C(N)=O)c(-c4ccc(Oc5ccccc5)cc4)nn32)CC1` (stereo partly drawn) [Example 38, (7S)-7-(1-(3-((2-((2-(2,6-dioxopiperidin-3-yl)-1,3-dioxoisoindolin-4-yl)amino)ethyl)(methyl)amino)propanoyl)piperidin-4-yl)-2-(4-phenoxyphenyl)-4,5,6,7-tetrahydropyrazolo[1,5-a]pyrimidine-3-carboxamide] has a DC50 of 371 nM.
